One series concerns C. parvum. The series can be described thus: Anticryptosporidial effect in BFTE cell culture inoculated with C. parvum oocysts, parasites enumerated 24 hours post-inoculation. Particulars: for Control Percent Survival: 24 hours post-inoculation; for Lowest concentrations with significant reduction (P<0.001) in parasite numbers: concentrations as low as, P<0.001 vs infection control; for Intact (i.e. unexcysted) oocysts in treated BFTE cell monolayers during microscopic enumeration: predominantly associated with concentrations exceeding 100 μg/ml. Format: cell-based, Cryptosporidium parvum (bovine isolate). On the procedure:
C. parvum (bovine isolate) oocysts used in this study were originally donated by the U.S. Department of Agriculture, Ames, Iowa. The oocysts were isolated from calf manure, preserved in 2.5% potassium dichromate, and used within 3 months of purification. Oocysts were decontaminated by suspension in 20% (vol/vol) 1.05% sodium hypochlorite on ice for 20 minutes. Oocysts were then washed three times in Hanks' balanced salt solution ("HIBSS") and once in RPMI 1640 (available from Sigma, St. Louis, Mo.). Release of sporozoites was achieved by incubating oocysts in an excystation solution consisting of 0.25% (wt/vol) trypsin (available from Sigma, St. Louis, Mo.) and 0.75% (wt/vol) taurodeoxycholic acid (available from Sigma) in HBSS. The resulting suspension was incubated at 37° C. for 45 minutes and microscopically observed to confirm sporozoite release. Sporozoites were completely separated from intact oocysts and oocyst walls by passage through sterile polycarbonate filters (3 micron pore size, available from Millipore Corp., Bedford, Mass.) twice prior to inoculation of bovine fallopian tube epithelial ("BFTE") cell monolayers.
Primary BFTE cell cultures were prepared from bovine fallopian tubes (FT). Fat was trimmed from the serosal surfaces, mucus was gently squeezed from the lumens, and FT were decontaminated by being submerged in 70% ethanol for 30 seconds. The FT were then transferred to sterile culture petri dishes containing HBSS and washed twice. The BFTE cells were harvested either by flushing the FT with HBSS, using a 10 ml syringe equipped with a mouse feeding needle, or by opening the FT lengthwise with scissors and scraping the mucosal surfaces. The BFTE cells were subsequently washed in HBSS by centrifugation at 200×g (force of gravity) for 10 minutes, planted in 75-cm^2 flasks containing RPMI 1640 and cultured in a 5% CO2 incubator at 37° C. for 72 to 120 hours. When the cell lines reached confluency, they were trypsinized, split, and planted onto cover slips positioned on the bottoms of individual wells in 24-well tissue culture plates. When cells reached 80% confluency, they were inoculated with either 10^5 oocysts or 4×10^5 sporozoites per well. Plates were then maintained at 37° C. in a candle jar environment (17% O2, 3% CO2, 80% N2). Growth medium was changed in each well every 72 hours. In wells inoculated with oocysts, the medium was first changed at 24 hours to remove any unexcysted oocysts.
Coverslips were removed at 5, 24, 48, 72, 96, and 120 hours from the inoculated wells containing monolayers of BFTE cells. The coverslips were washed in RPMI 1640, fixed in 100% methanol for 10 minutes, stained with Giemsa stain for 1 hour, and washed three times with double-distilled water (ddH2 O). Coverslips were then mounted on glass slides and examined under oil immersion (1000X), using bright-field microscopy. Parasites were enumerated by counting all developmental stages of C. parvum present in a single scan (67 fields) through the center of each coverslip. The data were statistically compared for significance, using analysis of variance (Fischer's protected least-significant-difference test using a "[…]" statistical analysis application developed by Abacus Concepts, Inc., Berkeley, Calif.).
The anticryptosporidial potential of the protease inhibitor AAT was evaluated in a BFTE cell culture system inoculated with C. parvum oocysts in accordance with the methods detailed in Example I. […] At 24 hours post-inoculation, the BFTE cells were rinsed with RPMI medium, fixed in methanol, and stained with Giemsa. Parasites were enumerated in cell monolayers by brightfield microscopy. Results, as set out in Table 1, represent the mean number of parasites counted per treatment group expressed as a percent, plus or minus the standard deviation, of the mean number of parasites counted in the infection control group.

The test system of another series is BFTE cells. The series can be described thus: Cytotoxicity for BFTE cells at the concentrations evaluated. Format: cell-based, bovine. Particulars: at the concentrations evaluated (5-1000 μg/ml). The protocol: Primary BFTE cell cultures were prepared from bovine fallopian tubes (FT). Fat was trimmed from the serosal surfaces, mucus was gently squeezed from the lumens, and FT were decontaminated by being submerged in 70% ethanol for 30 seconds. The FT were then transferred to sterile culture petri dishes containing HBSS and washed twice. The BFTE cells were harvested either by flushing the FT with HBSS, using a 10 ml syringe equipped with a mouse feeding needle, or by opening the FT lengthwise with scissors and scraping the mucosal surfaces. The BFTE cells were subsequently washed in HBSS by centrifugation at 200×g (force of gravity) for 10 minutes, planted in 75-cm^2 flasks containing RPMI 1640 and cultured in a 5% CO2 incubator at 37° C. for 72 to 120 hours. […]
The anticryptosporidial potential of the protease inhibitor AAT was evaluated in a BFTE cell culture system inoculated with C. parvum oocysts in accordance with the methods detailed in Example I. AAT concentrations of 5, 10, 50 100, and 500 micrograms per milliliter ("μg/ml") in RPMI medium were mixed with C. parvum oocysts and used to inoculate BFTE cell monolayers. […] Results, as set out in Table 1, represent the mean number of parasites counted per treatment group expressed as a percent, plus or minus the standard deviation, of the mean number of parasites counted in the infection control group.

Setting [1] is: 5 μg/ml, mean parasites as percent of infection control +/- SD.
Setting [2] is: 10 μg/ml, mean parasites as percent of infection control +/- SD.
Setting [3] is: 50 μg/ml, mean parasites as percent of infection control +/- SD.
[4] abbreviates: 100 μg/ml, mean parasites as percent of infection control +/- SD.
Where [5] appears, read: 500 μg/ml, mean parasites as percent of infection control +/- SD.
Setting [6] is: 1000 μg/ml, mean parasites as percent of infection control +/- SD.

Starred links: 1 amine or outer side, 2 acyl side, 3 side chain; linkers in the order of their positions; H or OH if unused. Residues, ends and D or L forms follow the SMILES beside them. *: point of attachment. MeOSuc = COC(=O)CCC(=O)*; CO = O=C([*:1])[*:2]; CH2Cl = ClC*

Regarding `O=S(=O)(F)Cc1ccccc1` [PMSF, phenylmethylsulfonyl flouride], the “Control Percent Survival” value in the series on C. parvum (1 mM, percent of infection control +/- SD) was 68.9 +/- 5.2%; in the series on C. parvum (2 mM, percent of infection control +/- SD) it was 55.9 +/- 4.7%; in the series on C. parvum (3 mM, percent of infection control +/- SD) it was 40.0 +/- 8.3%. For the same molecule, in the series on C. parvum (3 mM, P<0.001), the “Number of parasites vs infection control (P<0.001)” value was “significantly reduced”.

For `CC(C)[C@H](NC(=O)[C@H](CCCNC(=N)N)NC(=O)N[C@@H](Cc1ccccc1)C(=O)O)C(=O)N[C@H](C=O)CCCNC(=N)N` [ANTIPAIN, antipain] ({Phe-CO}-Arg-Val-Arg-aldehyde), the “Control Percent Survival” value is reported as 67.7 +/- 7.2% in the series on C. parvum (setting [1]); 53.1 +/- 5.8% in the series with C. parvum (setting [2]); 42.1 +/- 6.1% with C. parvum (setting [3]); 20.9 +/- 2.2% in the series on C. parvum (setting [4]); 15.6 +/- 1.4% with C. parvum (setting [5]); 6.6 +/- 1.4% with C. parvum (setting [6]). The “Lowest concentrations with significant reduction (P<0.001) in parasite numbers” value in the series with C. parvum lay in the range of 5 to 10 µg/mL. Besides, in the series with C. parvum, the “Intact (i.e. unexcysted) oocysts in treated BFTE cell monolayers during microscopic enumeration” value (shortened to “Intact (i.e. unexcysted) oocysts”) was “frequently observed”.

As to aprotinin, the “Control Percent Survival” value in the series with C. parvum (setting [1]) is on record as 83.9 +/- 6.6%; in the series on C. parvum (setting [2]) it was 54.2 +/- 6.0%; with C. parvum (setting [3]) it was 36.1 +/- 4.7%; with C. parvum (setting [4]) it was 16.8 +/- 5.1%; with C. parvum (setting [5]) it was 10.9 +/- 4.7%; with C. parvum (setting [6]), 9.4 +/- 1.8%. Moreover, in the series with C. parvum, the “Lowest concentrations with significant reduction (P<0.001) in parasite numbers” value was 5 to 10 µg/mL. Besides, the “Intact (i.e. unexcysted) oocysts” value with C. parvum is “frequently observed”.

Consider `COC(=O)CCC(=O)N[C@@H](C)C(=O)N[C@@H](C)C(=O)N1CCC[C@H]1C(=O)N[C@H](C(=O)CCl)C(C)C` [MAAPVCK, methoxysuccinyl-ala-ala-pro-valine chloromethylketone] (MeOSuc-AAPV-CH2Cl), for which the “Control Percent Survival” value in the series on C. parvum (setting [1]) is recorded as 89.1 +/- 5.4%; with C. parvum (setting [2]), 64.8 +/- 12.0%; in the series on C. parvum (setting [3]), 58.7 +/- 11.2%; with C. parvum (setting [4]) it was 51.9 +/- 4.6%; with C. parvum (setting [5]), 43.4 +/- 6.6%. In addition, the “Number of parasites vs infection control (P<0.01)” value with C. parvum (500 μg/ml) is “significantly reduced”.

In the case of `CC(=O)N[C@@H](CC(C)C)C(=O)N[C@@H](CC(C)C)C(=O)N[C@H](C=O)CCCNC(=N)N` [Leupeptin, leupeptin], the “Control Percent Survival” value is 89.1 +/- 5.4% with C. parvum (setting [1]); 64.8 +/- 12.0% with C. parvum (setting [2]); 58.7 +/- 11.2% in the series on C. parvum (setting [3]); 51.9 +/- 4.6% in the series with C. parvum (setting [4]); 43.4 +/- 6.6% in the series on C. parvum (setting [5]). Also, the “Number of parasites vs infection control (P<0.01)” value with C. parvum (10 μg/ml and 50 μg/ml) was “significantly reduced”.

On to alpha-1-antitrypsin [AAT], for which the “Control Percent Survival” value in the series on C. parvum (setting [1]) was 49.1 +/- 3.8%; in the series on C. parvum (setting [2]), 43.9 +/- 4.2%; in the series with C. parvum (setting [3]), 42.7 +/- 1.6%; with C. parvum (setting [4]), 30.4 +/- 1.9%; in the series on C. parvum (setting [5]), 14.7 +/- 6.3%; in the series on C. parvum (setting [6]) it was 1.8 +/- 0.4%. Moreover, the “Lowest concentrations with significant reduction (P<0.001) in parasite numbers” value with C. parvum fell in the range of 5 to 10 µg/mL. Besides, the “Intact (i.e. unexcysted) oocysts” value in the series on C. parvum was “frequently observed”. In addition, in the series with BFTE cells, the “Cytotoxicity for BFTE cells” value is reported as “no evidence of cytotoxicity”.

B1: soybean trypsin inhibitor (protein, UniProt P01070 25-205, looked up)
Trypsin inhibitor A: DFVLDNEGNPLENGGTYYILSDITAFGGIRAAPTGNERCPLTVVQSRNELDKGIGTIISSPYRIRFIAEGHPLSLKFDSFAVIMLCVGIPTEWSVVEDLPEGPAVKIGENKDAMDGWFRLERVSDDEFNNYKLVFCPQQAEDDKCGDIGISIDHDDGTRRLVVSKNKPLVVQFQKLDKESL
In the case of B1, the “Control Percent Survival” value was 89.1 +/- 5.4% in the series with C. parvum (setting [1]); 64.8 +/- 12.0% in the series on C. parvum (setting [2]); 58.7 +/- 11.2% in the series with C. parvum (setting [3]); 51.9 +/- 4.6% in the series with C. parvum (setting [4]); 43.4 +/- 6.6% in the series on C. parvum (setting [5]). Further, the “Number of parasites vs infection control (P<0.01)” value with C. parvum (50 μg/ml and 100 μg/ml) is reported as “significantly reduced”.

(Values after patent US5750496A, “Method of controlling cryptosporidium infectons using protease inhibitors” (priority 1996, dated 1998).)
